Laboratory results as given in US6867305B2, “Synthesis of epothilones, intermediates thereto and analogues thereof” (Sloan-Kettering Institute for Cancer Research, priority 1996, dated 2005).
Values joined by “and” are separate entries in the source; they are usually repeats but may differ in a detail not shown here. Equal values may be shown once. Read-outs that look alike come from different tables or passages of the source.

How the values were obtained:
[1] = Stability in plasma in vitro (HPLC); format: in vitro ADME, dog; settings: 5 μg/mL, 37 degree
Procedure: Stability of dEpoF in animal plasmas. A HPLC method is set up using a NovaPak C 18, 3.9×300 mm column with a mobile phase of 50% acetonitrile in 50 mM potassium dihydrogen phosphate with 0.01% triethylamine at a flow rate of 0.8 ml/min. dEpoF is monitored at a wavelength of 260 nm and has a retention time of about 10 min. The plasma stability is performed with mouse plasma and dog plasma purchased from Pel-Freeze and human plasma from the blood center in MSKCC. A small amount of dEpoF was dissolved in 50% methanol/water at a concentration of 500 μg/mL. An aliquot of 20 μL is then spiked to 2 mL of plasma to a final plasma concentration of 5 μg/mL. The plasma samples were kept at 37 degree. At the time point, 200 μL of the plasma was removed and added to 400 μL of methanol to precipitate the plasma protein. Twenty μL of the supernatant was analyzed by HPLC without further modification. dEpoF disappears rapidly with half life about one hour in the commercial frozen mouse plasma alone, but stable in dog and human plasma.

tubulin = test: Tubulin-binding / tubulin polymerization assay; format: biochemical
[2] = Pharmacokinetics in beagle dogs; format: in vivo; settings: male, dog, plasma, intravenous, 6 mg/kg, 10-min i.v. infusion
Procedure: (§1) dEpoB at doses of 2, 6, 12 and 20 mg/kg, were given to male beagle dogs (11.2-14 kg) via i.v. infusion. The infusion volume was 1 ml/kg for 10 min using the Harvard PHD2000 pump (Harvard Apparatus). dEpoB was formulated in Cremophor 3%, ethanol 3%, propyleneglycol 40% and 5% glucose 54%. The animal was pretreated at −30 min with Benadryl 5 mg/kg, i.v.; cimetidine 5 mg/kg i.m.; and dexamethasone 1 mg/kg, i.e. to minimize allergic reactions due to Cremophor administration.
Pharmacokinetic studies were also carried out for of dEpoB in beagle dogs at 6 mg/kg (120 mg/m^2 body surface), with 10-min i.v. infusion. Serial blood samples were collected in 5 ml heparinized tubes intermittently from-15 min to 24 hours. Plasma concentrations of dEpoB were determined by HPLC as described in methods.
Human blood plasma or nude mice plasma (300 μl) containing dEpoB (0.05-20 μg/ml) was added 30 μl of methanol and mixed for 2 min and then added 300 μl of methanol. The centrifuge supernatant was used for high performance liquid chromatography (HPLC). Nova-pak C18 column (15 cm) was used, with 50% acetonitrile/water with 0.8% triethylamine and 0.2% phosphoric acid as mobile phase. UV absorbance at 250 nm was measured.

[3] = Toxicity in beagle dogs, 10-min i.v. infusion; format: in vivo, beagle dog
Procedure: as §1
At 12 mg/kg. […] The body-weight slowly recovered in 2-3 weeks. […] There was a gross abnormality (reddish discoloration) of the intestinal mucosa from duodenum to the ileum. The small intestines contained blood tinged mucinous materials. […] Necrosis of intestinal mucosal epithelium with crypt cells most severely affected at this lethal dose.

[4] = tested on: Human lung carcinoma A549 cells; settings: A549 cells exposed to IC50-IC90: VBL 14.3 months, paclitaxel and adriamycin 21.3 months, dEpoB 21.4 months
From the text: Repeated exposure of human lung carcinoma A549 cells to sublethal concentrations of antitumor agents may lead to the development of drug resistance.
Every several weeks, cells were harvested for the dose-effect analysis to determine their folds of resistance (using SRB protein staining assay) based on comparing the IC50 value with the IC50 value of the untreated parent cells. Trypsinized/washed cells were used for propagating the cell lineage.

SMILES | stability in dog plasma [1] | tubulin-binding activity retained relative to dEpoB (tubulin) | concentration at 24 hr ([2]; read-out: plasma concentration at the end of 24-hr collection) | half-life ([2]; read-out: α-phase t1/2 (converted)) | half-life ([2]; read-out: β-phase t1/2 (converted)) | clinical signs ([3]; 12 mg/kg) | decrease in white blood cell (WBC) counts ([3]; 12 mg/kg) | drop in body-weight on day 3 ([3]; 12 mg/kg) | histopathology of 28 organs or tissues ([3]; 12 mg/kg) | platelet counts, ALT, AST ([3]; 12 mg/kg) | WBC on day 3 ([3]; 20 mg/kg) | body-weight loss on day 2 ([3]; 20 mg/kg) | body-weight loss on day 3 ([3]; 20 mg/kg) | increase in ALT and AST by day 4 ([3]; 20 mg/kg) | lethality ([3]; 20 mg/kg) | clinical signs on day 2 ([3]; 20 mg/kg i.v.) | toxicity ([3]; 2 or 6 mg/kg (40 and 120 mg/m^2)) | fold resistance developed to the drug after repeated exposure [4]
C/C1=C/C[C@@H](/C(C)=C/c2csc(CO)n2)OC(=O)C[C@H](O)C(C)(C)C(=O)[C@H](C)[C@@H](O)[C@@H](C)CCC1 [dEpoF, 12,13-Desoxyepothilone F] | stable | 90% | – | – | – | – | – | – | – | – | – | – | – | – | – | – | – | –
C/C1=C/C[C@@H](/C(C)=C/c2csc(C)n2)OC(=O)C[C@H](O)C(C)(C)C(=O)[C@H](C)[C@@H](O)[C@@H](C)CCC1 [dEpoB, 12,13-desoxyepothilone B] | – | – | 45 ng/mL and 92 nM | 1.9 h | 21 h | moderate diarrhea (without blood) | 13% | 1.3 kg | No significant histopathologic lesions | No significant changes | 0.6 k/μl | 0.9 kg | 3.6 kg | 3-6 fold | expired on day 4 | severe bloody diarrhea and dehydration | No significant toxicity | 21 fold
